Experimental data from US8821568B2, “Implant modified with non-hydroxylated vitamin D precursors” (Numat Biomedical S.L., priority 2008, dated 2014).

Experiments:
Assay type in all cases: cell-based, mouse
MC3T3-E1 cells [1] = assay: Real-time RT-PCR of vitamin D hydroxylation/degradation enzymes (CYP27A1, CYP27B1, CYP24A1), plastic wells; conditions: TCP, 2×10^−2 nmols, not irradiated
Method: (§1) To test the effect of the different treatments onto the plastic wells, 96-well plates made of polystyrene were used and the treatments with 7-DHC performed directly onto them. Cells grown onto untreated TCP were added as a control for all the experiments. Cells were seeded at a density of 30,000 cells/cm^2 and they were maintained in α-MEM supplemented with 10% FCS and antibiotics. Culture media was collected after 48 hours, to test cytotoxicity and the production of the hydroxylated forms of vitamin D. Cells were harvested after 2 days of culture using Trizol reagent (Roche Diagnostics, Mannheim, Germany), to analyse early gene expression response of several osteoblast differentiation markers and enzymes involved in vitamin D synthesis using real-time RT-PCR.
(§2) RNA was isolated from cells using a monophasic solution of phenol and guanidine thiocyanate (Trizol, Roche Diagnostics, Mannheim, Germany) according to the manufacturer's protocol. RNA was quantified at 260 nm using a Nanodrop spectrophotometer (NanoDrop Technologies, Wilmington, Del., USA).
(§3) Total RNA previously isolated was reverse-transcribed to cDNA using High Capacity RNA to cDNA kit (Applied Biosystems, Foster City, Calif.) according to the protocol of the supplier. The same amount of total RNA from each sample was converted into cDNA. Each cDNA was diluted ¼ and aliquots were stored at −20° C. until the PCR reactions were carried out.
(§4) Real-time RT-PCR was performed for two reference genes: 18S ribosomal RNA (18S rRNA), glyceraldehyde-3-phosphate dehydrogenase (GAPDH), and 11 target genes alkaline phospathase (ALP), Interleukin 6 (IL-6), Collagen (Coll-1), Osteocalcin (OC), Bone Morphogenetic Protein 2 (BMP-2), Osterix (Osx), Receptor activator of nuclear factor kappa-B ligand (RANKL), Osteoprogesterin (OPG) and genes involved in vitamin D synthesis such as Vitamin D3 25-hydroxylase (CYP27A1), 25 hydroxyvitamin D3-1-alpha hydroxylase (CYP27B1) and 1,25-dihydroxyvitamin D3 24-hydroxylase (CYP24A1).
Real-time PCR were performed in the Lightcycler 480® (Roche Diagnostics, Germany). […] After each cycle, fluorescence was measured at 72° C. […]
(§5) To allow relative quantification after PCR, real-time efficiencies were calculated from the given slopes in the LightCycler 480 software (Roche Diagnostics, Mannheim, Germany) using serial dilutions. Relative quantification after PCR was calculated by normalizing target gene concentration in each sample by the concentration mean of the two reference genes in given sample using the “advanced relative quantification method” provided by the LightCycler 480 analysis software.

MC3T3-E1 cells [2] = assay: Real-time RT-PCR of bone markers, plastic wells; conditions: TCP; 2 days; 2×10^−2 nmols, not irradiated, compared to control
Method: as §1, §2, §3, §4
(§6) Real-time PCR were performed in the Lightcycler 480® (Roche Diagnostics, Germany). Each reaction contained 5 μl of LightCycler-FastStart DNA Master^PLUS SYBR Green I (Roche Diagnostics, Mannheim, Germany), 0.5 μM of the sense and antisense specific primers (Table 1) and 3 μl of the cDNA dilution in a final volume of 10 μl. The normal amplification program consisted of a preincubation step for denaturation of the template cDNA (10 min 95° C.), followed by 45 cycles consisting of a denaturation step (10 s 95° C.), an annealing step (10 s 60° C., except for ALP that was 10 s at 65° C., OSX with 10 s at 68° C. and CYP24A1 at 58° C. 10 s) and an extension step (10 s 72° C.). After each cycle, fluorescence was measured at 72° C. Every run included a negative control without cDNA template. To confirm amplification specificity, PCR products were subjected to a melting curve analysis on the LightCycler and subsequently 2% agarose/TAE gel electrophoresis, Tm and amplicon size, respectively.
as §5

MC3T3-E1 cells [3] = assay: ELISA of 25-D3 and 1,25-D3 released to the culture media, plastic wells; conditions: TCP; 48 hours; 2×10^−2 nmols, not irradiated; mean±SEM
Method: as §1
25-D3 and 1,25-D3 released to the culture media after two days of treatment were analyzed by enzyme-linked immunosorbent assay (ELISA). Aliquots from the culture media were centrifuged at 1800 rpm for 5 minutes at 4° C. and supernatants were used for 25-D3 and 1,25-D3 determination following instructions described by the manufacturer (Immunodiagnostic Systems Ltd, Boldon, Tyne and Wear, UK).

MC3T3-E1 cells [4] = assay: Calcium content (mineralization, ICP-AES) on coated titanium implants; conditions: Ti implants; 28 days; UV-untreated; data not shown
Method: To test the effect of the surface modification, 96-well plates were used. Ti disks were placed into the wells and treatments and UV-activation were performed over there. Cells grown onto untreated polystyrene tissue culture plastic (TCP) were added as a control for all the experiments. Cells were seeded at a density of 30,000 cells/cm^2 and they were maintained in α-MEM supplemented with 10% FCS and antibiotics. Culture media was collected after 48 hours, to test cytotoxicity and the production of the hydroxylated form of vitamin D, 25-D3. Cells were harvested after two days of culture using Trizol reagent (Roche Diagnostics, Mannheim, Germany), to analyze gene expression of several osteoblast differentiation markers and enzymes involved in vitamin D synthesis using real-time RT-PCR. […]
[…] Cell lysates were put into freeze/thaw cycles (liquid nitrogen and 37° C. water bath) to improve protein recovery. […] ALP activity was calculated by measuring the cleavage of p-Nitrophenyl Phosphate (pNPP) (Sigma, St. Louis, Mo., USA) in a soluble yellow end product which absorbs at 405 nm. […] At this point, absorbance was read at 405 nm.
To determine calcium content samples were analyzed by inductively coupled plasma atomic emission spectrometry (Optima 5300 DV, PerkinElmer, Massachussetts, USA). […]

MC3T3-E1 cells [5] = assay: ALP activity in cell monolayer on coated titanium implants; conditions: Ti implants; day 21; UV-untreated; percentage of ethanol UV-untreated group set to 100%; mean±SEM
Method: (§7) To test the effect of the surface modification, 96-well plates were used. Ti disks were placed into the wells and treatments and UV-activation were performed over there. Cells grown onto untreated polystyrene tissue culture plastic (TCP) were added as a control for all the experiments. Cells were seeded at a density of 30,000 cells/cm^2 and they were maintained in α-MEM supplemented with 10% FCS and antibiotics. Culture media was collected after 48 hours, to test cytotoxicity and the production of the hydroxylated form of vitamin D, 25-D3. Cells were harvested after two days of culture using Trizol reagent (Roche Diagnostics, Mannheim, Germany), to analyze gene expression of several osteoblast differentiation markers and enzymes involved in vitamin D synthesis using real-time RT-PCR. On the other hand, MC3T3-E1 cells were harvested after 21 days to measure calcium content and ALP activity in the cell monolayer.
Cell monolayer was collected at 21 cell differentiation days and PBS 0.1% Triton X-100 was added to solubilize proteins. Cell lysates were put into freeze/thaw cycles (liquid nitrogen and 37° C. water bath) to improve protein recovery. After centrifugation at 33,000 g for 15 min at 4° C., supernatants acquired were assayed for ALP activity, calcium content and total protein determination. ALP activity was calculated by measuring the cleavage of p-Nitrophenyl Phosphate (pNPP) (Sigma, St. Louis, Mo., USA) in a soluble yellow end product which absorbs at 405 nm. A volume of 100 μl of this substrate was used in combination with 25 μl of each sample supernatant or standard point. The standard curve was prepared from calf intestinal alkaline phosphatase (CIAP, 1 U/μl) (Promega, Madison, Wis., USA) by mixing 1 μl from the stock CIAP with 5 ml of alkaline phosphatase buffer (1:5000 dilution), and then making 1:5 serial dilutions. Once the reaction was carried out, after 30 min in dark at room temperature, it was stopped with the addition of 50 μl of 3 M sodium hydroxide. At this point, absorbance was read at 405 nm.
Total protein was determined using a BCA protein assay kit (Pierce, Rockford, Ill., USA). For the analysis, cell supernatants were diluted 1:1 in PBS 0.1% Triton X-100. Standard curve and samples were analyzed as described by the manufacturer and reading the absorbance at 562 nm.

MC3T3-E1 cells [6] = assay: Real-time RT-PCR of osteoblast differentiation markers, coated titanium implants; conditions: Ti implants; 48 h; 2×10^−2 nmols, no UV, compared to control
Method: as §7, §2, §3
as §6, with “Real-time RT-PCR was performed for two reference genes: 18S ribosomal RNA (18S rRNA), glyceraldehyde-3-phosphate dehydrogenase (GAPDH); and eleven target genes: alkaline phosphathase (ALP), Interleukin 6 (IL-6), Collagen (Coll-1), Osteocalcin (OC), Bone Morphogenetic Protein 2 (BMP-2), Osterix (Osx), Receptor activator of nuclear factor kappa-B ligand (RANKL), Osteoprogesterin (OPG) and genes involved in vitamin D synthesis such as Vitamin D3 25-hydroxylase (CYP27A1) and 25 hydroxyvitamin D3-1-alpha hydroxylase (CYP27B1). Real-time” for “Real-time”, “C.)” for “C. and CYP24A1 at 58° C. 10 s)”
To allow relative quantification after PCR, real-time efficiencies were calculated from the given slopes in the LightCycler 480 software (Roche Diagnostics, Mannheim, Germany) using serial dilutions. Relative quantification after PCR was calculated by normalizing target gene concentration in each sample by the concentration mean of the two reference genes in given sample using the Advanced relative quantification method provided by the LightCycler 480 analysis software.

| SMILES | CYP27B1 mRNA expression (MC3T3-E1 cells [1]; 48 h) | CYP24A1 mRNA levels (MC3T3-E1 cells [1]; 2 days, data not shown) | IL-6 expression levels (MC3T3-E1 cells [2]) | 1,25-D3 detected in culture media (MC3T3-E1 cells [3]) | 25-D3 released to culture media (MC3T3-E1 cells [3]) | Calcium levels (MC3T3-E1 cells [4]) | ALP activity (MC3T3-E1 cells [5]) | RANKL gene expression (MC3T3-E1 cells [6]) |
| --- | --- | --- | --- | --- | --- | --- | --- | --- |
| C=C1CC[C@H](O)C/C1=C/C=C1\CCC[C@]2(C)[C@@H]([C@H](C)CCCC(C)(C)O)CC[C@@H]12 [25-D3, 25-hydroxyvitamin D3, reference compound] | not statistically different | only detected | significantly higher expression levels | 42 ± 4 pmol/L | 415 ± 20 nmol/L | trend to increased calcium levels | 77.40±13.40% | – |
| C=C1CC[C@H](O)C/C1=C/C=C1\CCC[C@]2(C)[C@@H]([C@H](C)CCCC(C)C)CC[C@@H]12 [D3, cholecalciferol, reference compound] | – | – | – | 19.7 ± 0.7 pmol/L | 9.1 ± 1.9 nmol/L | – | 35.28±4.23% | Statistical significances |
